Earlier results in patent publication US20060128792A1, “Deguelin as a chemopreventive agent for lung cancer” (priority 2002, published 2006).
Where two headings read alike, the source gives them in different places.

System: ovarian, breast and lung cancers
Conditions: cited from earlier work

In the case of `CC(=O)O[C@H]1C(=O)[C@@]2(C)[C@H]([C@H](OC(=O)c3ccccc3)[C@]3(O)C[C@H](OC(=O)[C@H](O)[C@@H](NC(=O)c4ccccc4)c4ccccc4)C(C)=C1C3(C)C)[C@]1(OC(C)=O)CO[C@@H]1C[C@@H]2O` [taxol, Paclitaxel], the response rate (advanced drug refractory ovarian cancer) is listed as 19-36%, the response rate (previously treated metastatic breast cancer) is listed as 27-62% and the response rate (various lung cancers) is listed as 21-37%.
